Tests used:
[1] = target: Insulin-like growth factor 1 receptor (Homo sapiens, UniProt P08069); assay: Inhibition of IGF1R
[2] = target: Vascular endothelial growth factor receptor 2 (Homo sapiens, UniProt P35968); assay: Inhibition of KDR
[3] = target: Mast/stem cell growth factor receptor Kit (Homo sapiens, UniProt P10721); assay: Inhibition of cKit
[4] = target: Angiopoietin-1 receptor (Homo sapiens, UniProt Q02763); assay: Inhibition of Tie2
[5] = Inhibition of p38 kinase
[6] = target: T1, Receptor-type tyrosine-protein kinase FLT3 (Homo sapiens, UniProt P36888); assay: Inhibition of FLT3
T1 sequence (P36888 whole entry): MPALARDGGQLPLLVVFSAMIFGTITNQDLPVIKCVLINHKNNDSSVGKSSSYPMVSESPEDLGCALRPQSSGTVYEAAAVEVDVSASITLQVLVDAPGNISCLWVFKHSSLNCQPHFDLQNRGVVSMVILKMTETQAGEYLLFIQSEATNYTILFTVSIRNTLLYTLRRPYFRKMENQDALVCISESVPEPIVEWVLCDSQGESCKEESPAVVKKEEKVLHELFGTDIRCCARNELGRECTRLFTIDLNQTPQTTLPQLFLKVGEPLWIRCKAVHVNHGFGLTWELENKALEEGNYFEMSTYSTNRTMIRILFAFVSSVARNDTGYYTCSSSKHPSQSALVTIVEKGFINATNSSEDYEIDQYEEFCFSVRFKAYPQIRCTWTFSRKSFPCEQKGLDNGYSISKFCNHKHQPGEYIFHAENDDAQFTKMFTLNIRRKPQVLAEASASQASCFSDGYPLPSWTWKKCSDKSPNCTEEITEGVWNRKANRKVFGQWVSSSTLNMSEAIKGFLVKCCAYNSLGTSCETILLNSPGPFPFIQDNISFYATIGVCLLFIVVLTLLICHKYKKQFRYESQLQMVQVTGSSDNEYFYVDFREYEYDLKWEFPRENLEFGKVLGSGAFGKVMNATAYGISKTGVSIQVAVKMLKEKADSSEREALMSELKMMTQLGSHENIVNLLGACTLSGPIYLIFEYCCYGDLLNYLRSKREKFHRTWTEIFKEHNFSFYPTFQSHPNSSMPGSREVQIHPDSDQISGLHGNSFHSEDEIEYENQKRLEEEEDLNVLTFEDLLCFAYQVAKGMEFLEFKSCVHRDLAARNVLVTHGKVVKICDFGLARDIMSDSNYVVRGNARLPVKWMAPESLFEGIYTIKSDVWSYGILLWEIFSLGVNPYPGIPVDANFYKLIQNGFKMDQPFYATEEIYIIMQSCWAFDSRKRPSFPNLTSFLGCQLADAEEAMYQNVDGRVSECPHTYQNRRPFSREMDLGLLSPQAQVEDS

[7] = target: T2, Ephrin type-B receptor 4 (Homo sapiens, UniProt P54760); assay: Inhibition of EphB4
T2 sequence (P54760 whole entry): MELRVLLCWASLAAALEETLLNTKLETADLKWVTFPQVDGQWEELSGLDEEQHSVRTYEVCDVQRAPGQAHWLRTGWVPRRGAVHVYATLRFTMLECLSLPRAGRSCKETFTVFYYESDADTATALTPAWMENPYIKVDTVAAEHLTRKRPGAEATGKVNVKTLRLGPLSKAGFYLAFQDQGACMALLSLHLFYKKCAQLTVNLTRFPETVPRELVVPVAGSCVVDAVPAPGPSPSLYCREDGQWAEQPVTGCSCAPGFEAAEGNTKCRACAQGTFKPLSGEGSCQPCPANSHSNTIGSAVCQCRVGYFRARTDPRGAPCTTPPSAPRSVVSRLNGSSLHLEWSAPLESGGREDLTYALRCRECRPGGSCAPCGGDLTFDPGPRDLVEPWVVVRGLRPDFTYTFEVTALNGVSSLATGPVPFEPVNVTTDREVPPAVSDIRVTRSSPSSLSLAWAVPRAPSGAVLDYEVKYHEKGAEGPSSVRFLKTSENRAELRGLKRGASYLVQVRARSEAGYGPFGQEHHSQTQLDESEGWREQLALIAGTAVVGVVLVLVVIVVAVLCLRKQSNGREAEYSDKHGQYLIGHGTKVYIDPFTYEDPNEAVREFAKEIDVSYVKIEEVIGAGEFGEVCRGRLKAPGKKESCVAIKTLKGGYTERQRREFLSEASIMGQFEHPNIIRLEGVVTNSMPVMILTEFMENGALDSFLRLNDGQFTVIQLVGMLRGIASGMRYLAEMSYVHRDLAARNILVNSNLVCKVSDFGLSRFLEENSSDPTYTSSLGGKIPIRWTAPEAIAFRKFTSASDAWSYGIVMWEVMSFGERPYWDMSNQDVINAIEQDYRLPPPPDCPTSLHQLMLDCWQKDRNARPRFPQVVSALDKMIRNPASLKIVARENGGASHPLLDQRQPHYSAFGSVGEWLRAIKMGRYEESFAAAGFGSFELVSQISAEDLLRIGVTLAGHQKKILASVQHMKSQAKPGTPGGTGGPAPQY

[8] = target: Fibroblast growth factor receptor 1 (Homo sapiens, UniProt P11362); assay: Inhibition of FGFR1
[9] = target: T3, Tyrosine-protein kinase receptor UFO (Homo sapiens, UniProt P30530); assay: Inhibition of Axl kinase
T3 sequence (P30530 whole entry): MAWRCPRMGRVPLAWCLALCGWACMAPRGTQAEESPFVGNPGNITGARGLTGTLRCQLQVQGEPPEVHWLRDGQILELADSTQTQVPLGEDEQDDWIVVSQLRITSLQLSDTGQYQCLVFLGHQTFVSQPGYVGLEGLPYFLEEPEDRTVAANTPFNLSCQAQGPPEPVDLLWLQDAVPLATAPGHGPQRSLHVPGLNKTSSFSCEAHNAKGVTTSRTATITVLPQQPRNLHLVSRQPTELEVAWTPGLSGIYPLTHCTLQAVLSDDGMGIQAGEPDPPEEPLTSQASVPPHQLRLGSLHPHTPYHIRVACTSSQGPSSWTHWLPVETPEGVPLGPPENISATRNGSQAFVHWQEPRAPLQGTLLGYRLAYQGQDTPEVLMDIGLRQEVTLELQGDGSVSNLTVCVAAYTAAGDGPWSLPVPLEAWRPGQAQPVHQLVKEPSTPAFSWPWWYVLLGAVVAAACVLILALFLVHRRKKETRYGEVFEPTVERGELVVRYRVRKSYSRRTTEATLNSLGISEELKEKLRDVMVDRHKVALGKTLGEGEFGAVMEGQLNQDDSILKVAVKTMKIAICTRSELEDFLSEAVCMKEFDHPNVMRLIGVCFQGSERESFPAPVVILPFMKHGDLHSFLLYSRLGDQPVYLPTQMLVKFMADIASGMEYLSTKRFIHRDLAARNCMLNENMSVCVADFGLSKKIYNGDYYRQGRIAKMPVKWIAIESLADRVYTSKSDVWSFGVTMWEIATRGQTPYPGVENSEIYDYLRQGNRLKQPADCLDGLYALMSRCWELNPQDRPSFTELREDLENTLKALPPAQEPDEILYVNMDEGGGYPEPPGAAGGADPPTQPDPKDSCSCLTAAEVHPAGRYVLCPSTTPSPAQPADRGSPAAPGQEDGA

[10] = target: Tyrosine-protein kinase ABL1 (Homo sapiens, UniProt P00519)
[11] = target: Hepatocyte growth factor receptor (Homo sapiens, UniProt P08581); assay: Inhibition of cMet
Sequence of Hepatocyte growth factor receptor (P08581 whole entry): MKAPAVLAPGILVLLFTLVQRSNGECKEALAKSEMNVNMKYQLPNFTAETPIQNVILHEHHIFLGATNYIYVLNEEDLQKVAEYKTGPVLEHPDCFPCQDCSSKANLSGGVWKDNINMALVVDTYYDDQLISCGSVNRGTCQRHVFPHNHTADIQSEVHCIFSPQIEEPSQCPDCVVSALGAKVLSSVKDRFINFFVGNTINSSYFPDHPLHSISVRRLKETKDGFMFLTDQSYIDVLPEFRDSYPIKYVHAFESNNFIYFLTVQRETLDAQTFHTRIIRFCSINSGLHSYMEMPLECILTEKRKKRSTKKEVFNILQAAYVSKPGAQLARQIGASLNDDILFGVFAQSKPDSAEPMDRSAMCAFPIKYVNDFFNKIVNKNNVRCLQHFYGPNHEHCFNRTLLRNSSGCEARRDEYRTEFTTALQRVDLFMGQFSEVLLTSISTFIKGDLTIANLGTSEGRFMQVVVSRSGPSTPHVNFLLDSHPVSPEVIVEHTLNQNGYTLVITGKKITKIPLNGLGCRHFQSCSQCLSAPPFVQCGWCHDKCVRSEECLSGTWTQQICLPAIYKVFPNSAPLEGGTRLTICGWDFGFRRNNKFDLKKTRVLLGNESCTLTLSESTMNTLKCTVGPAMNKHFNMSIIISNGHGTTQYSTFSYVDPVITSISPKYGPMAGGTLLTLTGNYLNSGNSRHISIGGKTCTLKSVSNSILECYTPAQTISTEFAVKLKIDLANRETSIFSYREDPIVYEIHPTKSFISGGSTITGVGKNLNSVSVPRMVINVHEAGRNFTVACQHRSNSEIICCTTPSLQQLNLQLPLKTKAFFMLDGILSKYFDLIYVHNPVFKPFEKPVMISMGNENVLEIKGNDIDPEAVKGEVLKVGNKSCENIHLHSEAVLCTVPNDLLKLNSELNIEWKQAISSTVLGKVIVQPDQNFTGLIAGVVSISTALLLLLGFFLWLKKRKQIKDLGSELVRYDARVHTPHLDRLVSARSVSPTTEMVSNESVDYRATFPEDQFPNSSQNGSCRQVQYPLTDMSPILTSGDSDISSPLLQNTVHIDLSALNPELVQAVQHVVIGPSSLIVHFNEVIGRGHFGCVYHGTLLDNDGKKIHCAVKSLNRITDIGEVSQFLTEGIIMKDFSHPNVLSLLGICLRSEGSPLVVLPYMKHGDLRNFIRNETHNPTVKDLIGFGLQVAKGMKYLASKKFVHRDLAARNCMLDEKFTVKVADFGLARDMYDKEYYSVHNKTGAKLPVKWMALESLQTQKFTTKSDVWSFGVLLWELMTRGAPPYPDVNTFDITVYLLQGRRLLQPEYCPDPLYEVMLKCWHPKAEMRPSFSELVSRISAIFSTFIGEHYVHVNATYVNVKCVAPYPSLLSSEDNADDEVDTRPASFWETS

[12] = target: Proto-oncogene tyrosine-protein kinase Src (Homo sapiens, UniProt P12931); assay: Inhibition of cSrc
Sequence of Proto-oncogene tyrosine-protein kinase Src (P12931 2-536 limits assumed): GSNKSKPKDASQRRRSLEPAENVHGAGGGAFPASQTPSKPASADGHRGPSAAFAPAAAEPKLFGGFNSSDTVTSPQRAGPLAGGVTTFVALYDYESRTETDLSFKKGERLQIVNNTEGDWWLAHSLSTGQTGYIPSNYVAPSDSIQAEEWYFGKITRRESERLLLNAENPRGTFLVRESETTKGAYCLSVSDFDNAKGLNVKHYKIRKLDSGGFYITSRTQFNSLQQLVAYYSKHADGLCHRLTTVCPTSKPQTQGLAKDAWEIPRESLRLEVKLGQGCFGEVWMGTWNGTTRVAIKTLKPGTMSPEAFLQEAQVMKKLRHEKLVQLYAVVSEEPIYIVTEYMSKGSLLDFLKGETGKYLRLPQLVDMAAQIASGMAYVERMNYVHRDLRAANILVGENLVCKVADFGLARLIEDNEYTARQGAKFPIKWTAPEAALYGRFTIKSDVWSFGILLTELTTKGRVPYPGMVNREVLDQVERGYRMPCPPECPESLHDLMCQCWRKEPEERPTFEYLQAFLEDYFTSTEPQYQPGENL

[13] = Inhibition of PKA
[14] = target: Tyrosine-protein kinase JAK2 (Homo sapiens, UniProt O60674); assay: Inhibition of JAK2
[15] = target: Cyclin-dependent kinase 2 (Homo sapiens, UniProt P24941); assay: Inhibition of CDK2
[16] = target: RAC-alpha serine/threonine-protein kinase (Homo sapiens, UniProt P31749); assay: Inhibition of PKB
[17] = target: Serine/threonine-protein kinase B-raf (Homo sapiens, UniProt P15056, V600E); assay: Inhibition of bRaf V599E mutant
Sequence of Serine/threonine-protein kinase B-raf (P15056 2-766 V600E limits assumed): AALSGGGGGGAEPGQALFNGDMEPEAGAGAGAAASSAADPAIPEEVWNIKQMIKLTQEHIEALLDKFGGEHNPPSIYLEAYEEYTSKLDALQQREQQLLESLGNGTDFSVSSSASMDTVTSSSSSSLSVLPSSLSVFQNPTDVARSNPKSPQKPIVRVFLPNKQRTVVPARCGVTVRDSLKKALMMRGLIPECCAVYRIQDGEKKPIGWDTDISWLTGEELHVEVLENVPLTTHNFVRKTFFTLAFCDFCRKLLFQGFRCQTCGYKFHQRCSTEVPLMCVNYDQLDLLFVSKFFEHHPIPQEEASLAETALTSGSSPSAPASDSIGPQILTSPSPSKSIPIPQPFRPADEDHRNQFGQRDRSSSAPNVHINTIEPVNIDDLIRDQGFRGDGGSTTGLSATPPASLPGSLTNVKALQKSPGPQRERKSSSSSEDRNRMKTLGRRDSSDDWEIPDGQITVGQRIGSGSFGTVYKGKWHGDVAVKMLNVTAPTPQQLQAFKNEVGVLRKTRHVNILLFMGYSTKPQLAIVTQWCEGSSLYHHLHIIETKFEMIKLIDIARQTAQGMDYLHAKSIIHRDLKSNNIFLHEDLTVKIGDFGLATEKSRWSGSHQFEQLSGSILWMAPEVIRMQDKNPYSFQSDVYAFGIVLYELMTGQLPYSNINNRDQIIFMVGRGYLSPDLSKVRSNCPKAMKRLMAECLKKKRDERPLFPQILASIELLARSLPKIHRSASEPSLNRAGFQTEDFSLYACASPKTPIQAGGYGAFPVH

Sequence of Insulin-like growth factor 1 receptor (P08069 31-736 limits assumed): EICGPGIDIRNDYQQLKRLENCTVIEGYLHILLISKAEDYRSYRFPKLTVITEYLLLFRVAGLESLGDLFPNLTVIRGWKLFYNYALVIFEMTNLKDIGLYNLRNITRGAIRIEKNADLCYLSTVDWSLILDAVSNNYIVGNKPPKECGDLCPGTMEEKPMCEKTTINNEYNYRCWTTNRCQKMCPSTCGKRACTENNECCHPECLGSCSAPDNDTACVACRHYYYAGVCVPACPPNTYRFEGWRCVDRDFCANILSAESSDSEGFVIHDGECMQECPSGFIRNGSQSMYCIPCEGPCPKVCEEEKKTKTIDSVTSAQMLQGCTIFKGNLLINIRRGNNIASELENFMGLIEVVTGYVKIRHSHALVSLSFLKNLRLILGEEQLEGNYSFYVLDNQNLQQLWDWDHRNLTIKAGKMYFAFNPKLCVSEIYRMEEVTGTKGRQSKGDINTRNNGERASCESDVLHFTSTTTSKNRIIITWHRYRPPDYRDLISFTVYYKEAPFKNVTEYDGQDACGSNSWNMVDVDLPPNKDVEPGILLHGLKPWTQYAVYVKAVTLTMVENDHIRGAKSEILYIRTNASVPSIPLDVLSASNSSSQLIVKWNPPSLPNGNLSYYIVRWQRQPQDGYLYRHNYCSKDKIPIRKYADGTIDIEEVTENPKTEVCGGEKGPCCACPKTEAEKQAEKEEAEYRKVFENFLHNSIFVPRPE
Sequence of Insulin-like growth factor 1 receptor (P08069 741-1367 limits assumed): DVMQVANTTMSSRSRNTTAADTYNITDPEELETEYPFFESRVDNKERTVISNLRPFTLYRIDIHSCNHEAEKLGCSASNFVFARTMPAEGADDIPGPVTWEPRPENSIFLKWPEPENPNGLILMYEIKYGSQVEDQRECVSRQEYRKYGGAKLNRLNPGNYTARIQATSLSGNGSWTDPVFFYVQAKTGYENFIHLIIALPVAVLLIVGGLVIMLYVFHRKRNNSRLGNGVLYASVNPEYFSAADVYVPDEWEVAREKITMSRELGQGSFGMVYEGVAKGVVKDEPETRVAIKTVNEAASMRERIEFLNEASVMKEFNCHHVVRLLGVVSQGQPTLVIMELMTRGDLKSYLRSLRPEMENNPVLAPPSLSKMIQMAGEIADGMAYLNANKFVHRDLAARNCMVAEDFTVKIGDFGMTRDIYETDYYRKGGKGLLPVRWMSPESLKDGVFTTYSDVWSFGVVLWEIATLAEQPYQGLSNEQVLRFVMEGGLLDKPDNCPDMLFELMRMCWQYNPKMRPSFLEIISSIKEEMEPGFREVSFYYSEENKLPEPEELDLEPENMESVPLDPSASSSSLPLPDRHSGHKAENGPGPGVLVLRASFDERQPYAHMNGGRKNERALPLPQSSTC
Sequence of Mast/stem cell growth factor receptor Kit (P10721 whole entry): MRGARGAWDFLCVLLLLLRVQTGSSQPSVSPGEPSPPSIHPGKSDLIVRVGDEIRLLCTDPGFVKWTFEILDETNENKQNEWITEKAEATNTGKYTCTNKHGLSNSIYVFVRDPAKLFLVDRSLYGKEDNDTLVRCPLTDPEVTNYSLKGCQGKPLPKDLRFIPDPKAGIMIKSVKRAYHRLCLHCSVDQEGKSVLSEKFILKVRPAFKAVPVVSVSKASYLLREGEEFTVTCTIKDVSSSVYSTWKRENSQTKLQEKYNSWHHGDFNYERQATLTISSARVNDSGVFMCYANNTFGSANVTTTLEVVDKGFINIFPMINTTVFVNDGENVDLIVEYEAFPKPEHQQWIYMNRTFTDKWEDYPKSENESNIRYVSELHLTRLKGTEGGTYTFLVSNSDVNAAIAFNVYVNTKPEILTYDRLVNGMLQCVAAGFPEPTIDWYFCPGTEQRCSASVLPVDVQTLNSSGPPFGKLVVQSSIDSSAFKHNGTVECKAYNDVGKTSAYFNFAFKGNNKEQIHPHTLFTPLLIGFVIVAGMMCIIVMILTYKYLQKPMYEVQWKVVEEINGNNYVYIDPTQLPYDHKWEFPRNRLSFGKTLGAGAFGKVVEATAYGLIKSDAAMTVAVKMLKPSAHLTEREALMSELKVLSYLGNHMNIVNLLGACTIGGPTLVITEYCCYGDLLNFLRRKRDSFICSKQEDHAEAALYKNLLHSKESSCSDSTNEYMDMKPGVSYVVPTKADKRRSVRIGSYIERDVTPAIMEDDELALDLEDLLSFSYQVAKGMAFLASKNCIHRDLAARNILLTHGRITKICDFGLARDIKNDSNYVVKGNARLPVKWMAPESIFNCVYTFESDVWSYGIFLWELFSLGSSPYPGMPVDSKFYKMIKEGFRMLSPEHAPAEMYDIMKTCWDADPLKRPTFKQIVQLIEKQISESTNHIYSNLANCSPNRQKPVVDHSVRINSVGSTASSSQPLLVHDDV

CCN(CC)CCOc1ccc(Nc2cc(NC(=O)Nc3c(Cl)cccc3Cl)ncn2)cc1
IC50 [1]: > 10000 nM
IC50 [2]: 960 nM
IC50 [3]: 930 nM
IC50 [4]: 300 nM
IC50 [5]: 350 nM
IC50 [6]: > 10000 nM
IC50 [7]: 430 nM
IC50 [8]: 570 nM
IC50 [9]: > 10000 nM
IC50 [10]: 250 nM
IC50 [11]: > 10000 nM
IC50 [12]: 66 nM
IC50 [13]: > 10000 nM
IC50 [14]: > 10000 nM
IC50 [15]: > 10000 nM
IC50 [16]: > 10000 nM
IC50 [17]: 150 nM

— ChEMBL document CHEMBL1141507, “Entry into a new class of protein kinase inhibitors by pseudo ring design” (Bioorg Med Chem Lett, 2008)
